# Patent publication US20250152675A1, “I-TYPE RECOMBINANT COLLAGEN WITH HIGH TRANSDERMAL ABSORBABILITY, AND USE THEREOF” (XI'AN GIANT BIOGENE TECHNOLOLGY CO., LTD, priority 2022, published 2025)
# Residues, ends and D or L forms follow the SMILES beside them.
# Assay: Transdermal penetration through ex vivo mouse skin in a single-chamber diffusion cell, content by BCA kit
# Type: in vitro ADME, Kunming mice
# Conditions: collagen peptide 5 mg/ml in 0.9% NaCl, diffusion area 2.0 cm^2, 37.5° C.
# Protocol: 1. Preparation of Mouse Skin Ex Vivo 10 Kunming mice of 20 to 22 g with half male and half […] were used in the experiment. After the mice were killed, the hairs on the abdomen were removed. Then the skin on the hair-removed area was peeled off, stripped of fat and tendons, and rinsed repeatedly with distilled water. After being washed, the mouse skins were rinsed with normal saline, then treated with 10% glycerol, and stored at −20° C. for use (use up within 7 days).
# Single-chamber diffusion cell: The effective diffusion area of the diffusion cell is 2.0 cm^2, the volume of the receiving cell is 14 ml, the length of the custom-made stirrer is 1.4 cm, and the receiving solution is 0.9% NaCl solution.
# The stored mouse skin was taken out, thawed, washed with normal saline, and sandwiched between the receiving chamber and the supplying chamber, with the medicated side facing the supplying chamber and the skin side facing the receiving chamber. The temperature of the water bath system was adjusted to 37.5° C., and the stirring speed was adjusted to 100 rpm/min. 0.9% NaCl solution pre-warmed at 37° C. was added to the receiving chamber and the air bubbles were exhausted, in order to reduce the interference, the inner surface of the mouse skin was firstly contacted with the receiving solution without medication and all the receiving solution was replaced. Then the 27 collagen peptides synthesized were prepared into 5 mg/ml solutions using 0.9% NaCl respectively, which were injected into the supplying chamber and firmly adhere to the mouse skin respectively. After 24 h, part of the receiving solution was absorbed with a syringe as the sample solution to determine the transdermal amount of collagen peptide.
# The BCA kit method was used to determine the polypeptide content in the sample solution. […]
row,Structure (SMILES),24h penetration amount [µg]
1,CC(C)C[C@H](NC(=O)CNC(=O)[C@H](C)NC(=O)[C@@H](NC(=O)CNC(=O)[C@@H]1CCCN1C(=O)[C@H](CC(C)C)NC(=O)CNC(=O)[C@H](CCCNC(=N)N)NC(=O)[C@H](C)NC(=O)CNC(=O)[C@H](CCC(N)=O)NC(=O)[C@@H]1CCCN1C(=O)CNC(=O)[C@@H]1CCCN1C(=O)[C@@H]1CCCN1C(=O)CNC(=O)[C@H](CCCNC(=N)N)NC(=O)[C@H](CCC(=O)O)NC(=O)CNC(=O)[C@@H]1CCCN1C(=O)[C@H](CCCNC(=N)N)NC(=O)CNC(=O)[C@@H]1CCCN1C(=O)[C@H](CCCCN)NC(=O)CNC(=O)[C@H](C)NC(=O)[C@H](CCC(=O)O)NC(=O)CNC(=O)[C@H](CC(=O)O)NC(=O)[C@H](CC(=O)O)NC(=O)CNC(=O)[C@H](CC(N)=O)NC(=O)[C@H](CCCCN)NC(=O)CN)[C@@H](C)O)C(=O)N1CCC[C@H]1C(=O)O [compound 2] (H-GKNGDDGEAGKPGRPGERGPPGPQGARGLPGTAGLP-OH; N-terminus and C-terminus assumed),2097.44
2,CC(C)[C@H](NC(=O)[C@H](C)NC(=O)CNC(=O)[C@@H]1CCCN1C(=O)[C@@H]1CCCN1C(=O)CNC(=O)[C@@H]1CCCN1C(=O)[C@@H](NC(=O)CNC(=O)[C@H](CCCNC(=N)N)NC(=O)[C@H](CCC(=O)O)NC(=O)CNC(=O)[C@H](C)NC(=O)[C@H](CCCCN)NC(=O)CNC(=O)[C@@H]1CCCN1C(=O)[C@H](CCC(=O)O)NC(=O)CNC(=O)[C@H](C)NC(=O)[C@H](C)NC(=O)CNC(=O)[C@H](CCCCN)NC(=O)[C@@H]1CCCN1C(=O)CNC(=O)[C@@H]1CCCN1C(=O)[C@H](Cc1ccccc1)NC(=O)CN)C(C)C)C(=O)NCC(=O)N1CCC[C@H]1C(=O)N[C@@H](C)C(=O)NCC(=O)N[C@@H](CCCCN)C(=O)N[C@@H](CC(=O)O)C(=O)NCC(=O)N[C@@H](CCC(=O)O)C(=O)N[C@@H](C)C(=O)O [compound 11] (H-GFPGPKGAAGEPGKAGERGVPGPPGAVGPAGKDGEA-OH; N-terminus and C-terminus assumed),2576.34
3,CSCC[C@H](NC(=O)[C@@H]1CCCN1C(=O)CNC(=O)[C@@H]1CCCN1C(=O)[C@@H]1CCCN1C(=O)CNC(=O)[C@H](CCCNC(=N)N)NC(=O)[C@H](CCC(=O)O)NC(=O)CN)C(=O)NCC(=O)N1CCC[C@H]1C(=O)N1CCC[C@H]1C(=O)NCC(=O)N[C@@H](CC(C)C)C(=O)N[C@@H](C)C(=O)NCC(=O)N1CCC[C@H]1C(=O)N1CCC[C@H]1C(=O)NCC(=O)N[C@@H](CCC(=O)O)C(=O)N[C@@H](CO)C(=O)NCC(=O)N[C@@H](CCCNC(=N)N)C(=O)N[C@@H](CCC(=O)O)C(=O)NCC(=O)N[C@@H](C)C(=O)N1CCC[C@H]1C(=O)NCC(=O)N[C@@H](C)C(=O)N[C@@H](CCC(=O)O)C(=O)NCC(=O)N[C@@H](CO)C(=O)N1CCC[C@H]1C(=O)NCC(=O)N[C@@H](CCCNC(=N)N)C(=O)N[C@@H](CC(=O)O)C(=O)O [compound 24] (H-GERGPPGPMGPPGLAGPPGESGREGAPGAEGSPGRD-OH; N-terminus and C-terminus assumed),2234.67
4,CC(C)[C@H](NC(=O)CNC(=O)[C@H](CCCNC(=N)N)NC(=O)[C@H](CCC(=O)O)NC(=O)CN)C(=O)N[C@@H](CCC(N)=O)C(=O)NCC(=O)N1CCC[C@H]1C(=O)N1CCC[C@H]1C(=O)NCC(=O)N1CCC[C@H]1C(=O)N[C@@H](C)C(=O)NCC(=O)N1CCC[C@H]1C(=O)N[C@@H](CCCNC(=N)N)C(=O)NCC(=O)N[C@@H](C)C(=O)N[C@@H](CC(N)=O)C(=O)NCC(=O)N[C@@H](C)C(=O)N1CCC[C@H]1C(=O)NCC(=O)N[C@@H](CC(N)=O)C(=O)N[C@@H](CC(=O)O)C(=O)NCC(=O)N[C@@H](C)C(=O)N[C@@H](CCCCN)C(=O)NCC(=O)N[C@@H](CC(=O)O)C(=O)N[C@@H](C)C(=O)NCC(=O)N[C@@H](C)C(=O)N1CCC[C@H]1C(=O)NCC(=O)N[C@@H](C)C(=O)N1CCC[C@H]1C(=O)O [compound 15] (H-GERGVQGPPGPAGPRGANGAPGNDGAKGDAGAPGAP-OH; N-terminus and C-terminus assumed),2111.23
5,CSCC[C@H](NC(=O)[C@H](CCC(N)=O)NC(=O)CNC(=O)[C@@H]1CCCN1C(=O)[C@H](C)NC(=O)CNC(=O)[C@H](CC(N)=O)NC(=O)[C@H](CCC(=O)O)NC(=O)CNC(=O)[C@@H]1CCCN1C(=O)[C@H](CO)NC(=O)CNC(=O)[C@@H]1CCCN1C(=O)[C@H](CCC(=O)O)NC(=O)CNC(=O)[C@H](CCCCN)NC(=O)[C@@H]1CCCN1C(=O)CNC(=O)[C@H](C)NC(=O)[C@@H]1CCCN1C(=O)CNC(=O)[C@H](C)NC(=O)[C@H](CC(=O)O)NC(=O)CNC(=O)[C@H](CCCCN)NC(=O)[C@H](C)NC(=O)CN)C(=O)NCC(=O)N1CCC[C@H]1C(=O)N[C@@H](CCCNC(=N)N)C(=O)NCC(=O)N[C@@H](CC(C)C)C(=O)N1CCC[C@H]1C(=O)NCC(=O)N[C@@H](CCC(=O)O)C(=O)N[C@@H](CCCNC(=N)N)C(=O)O [compound 4] (H-GAKGDAGPAGPKGEPGSPGENGAPGQMGPRGLPGER-OH; N-terminus and C-terminus assumed),2034.78
6,CSCC[C@H](NC(=O)[C@@H]1CCCN1C(=O)CNC(=O)[C@@H]1CCCN1C(=O)[C@@H]1CCCN1C(=O)CNC(=O)[C@H](CCCNC(=N)N)NC(=O)[C@H](CCC(=O)O)NC(=O)CNC(=O)[C@H](CO)NC(=O)[C@H](C)NC(=O)CNC(=O)[C@H](CO)NC(=O)[C@@H]1CCCN1C(=O)CNC(=O)[C@H](CCC(N)=O)NC(=O)[C@H](CCCCN)NC(=O)CNC(=O)[C@@H]1CCCN1C(=O)[C@H](CCC(=O)O)NC(=O)CNC(=O)[C@H](CO)NC(=O)[C@@H]1CCCN1C(=O)CNC(=O)[C@@H]1CCCN1C(=O)[C@H](CC(C)C)NC(=O)CNC(=O)[C@@H]1CCCN1C(=O)[C@H](Cc1ccccc1)NC(=O)CNC(=O)[C@H](CCCNC(=N)N)NC(=O)[C@H](CCC(=O)O)NC(=O)CN)C(=O)NCC(=O)N1CCC[C@H]1C(=O)N1CCC[C@H]1C(=O)O [compound 21] (H-GERGFPGLPGPSGEPGKQGPSGASGERGPPGPMGPP-OH; N-terminus and C-terminus assumed),2199.78
7,CC(C)C[C@H](NC(=O)[C@H](CC(=O)O)NC(=O)CNC(=O)[C@@H]1CCCN1C(=O)[C@@H](NC(=O)CNC(=O)[C@H](CCC(N)=O)NC(=O)[C@H](CCC(=O)O)NC(=O)CNC(=O)[C@@H]1CCCN1C(=O)[C@H](CCCCN)NC(=O)CNC(=O)[C@H](C)NC(=O)[C@H](CCC(=O)O)NC(=O)CNC(=O)[C@@H]1CCCN1C(=O)[C@@H]1CCCN1C(=O)CN)C(C)C)C(=O)NCC(=O)N[C@@H](C)C(=O)N1CCC[C@H]1C(=O)NCC(=O)N1CCC[C@H]1C(=O)N[C@@H](CO)C(=O)NCC(=O)N[C@@H](C)C(=O)N[C@@H](CCCNC(=N)N)C(=O)NCC(=O)N[C@@H](CCC(=O)O)C(=O)N[C@@H](CCCNC(=N)N)C(=O)NCC(=O)N[C@@H](Cc1ccccc1)C(=O)N1CCC[C@H]1C(=O)NCC(=O)N[C@@H](CCC(=O)O)C(=O)N[C@@H](CCCNC(=N)N)C(=O)O [compound 25] (H-GPPGEAGKPGEQGVPGDLGAPGPSGARGERGFPGER-OH; N-terminus and C-terminus assumed),2255.78
8,CC(C)C[C@H](NC(=O)CNC(=O)[C@@H](NC(=O)[C@@H]1CCCN1C(=O)CNC(=O)[C@@H]1CCCN1C(=O)[C@H](CCC(=O)O)NC(=O)CNC(=O)[C@H](CCCNC(=N)N)NC(=O)[C@H](C)NC(=O)CNC(=O)[C@H](CCCNC(=N)N)NC(=O)[C@H](CCCCN)NC(=O)CNC(=O)[C@H](CCC(=O)O)NC(=O)[C@H](CCC(=O)O)NC(=O)CNC(=O)[C@H](C)NC(=O)[C@@H]1CCCN1C(=O)CNC(=O)[C@@H]1CCCN1C(=O)[C@@H]1CCCN1C(=O)CNC(=O)[C@H](CCC(N)=O)NC(=O)[C@@H](NC(=O)CNC(=O)[C@@H](NC(=O)[C@@H]1CCCN1C(=O)CN)C(C)C)C(C)C)[C@@H](C)O)C(=O)N1CCC[C@H]1C(=O)NCC(=O)N1CCC[C@H]1C(=O)N1CCC[C@H]1C(=O)NCC(=O)N[C@@H](CCC(=O)O)C(=O)N[C@@H](CCCNC(=N)N)C(=O)O [compound 7] (H-GPVGVQGPPGPAGEEGKRGARGEPGPTGLPGPPGER-OH; N-terminus and C-terminus assumed),2189.90
9,CC(C)C[C@H](NC(=O)[C@H](CC(=O)O)NC(=O)CNC(=O)[C@@H]1CCCN1C(=O)[C@@H](NC(=O)CNC(=O)[C@H](CCC(N)=O)NC(=O)[C@H](CCC(=O)O)NC(=O)CNC(=O)[C@@H]1CCCN1C(=O)[C@H](CCCCN)NC(=O)CNC(=O)[C@H](C)NC(=O)[C@H](CCC(=O)O)NC(=O)CNC(=O)[C@@H]1CCCN1C(=O)[C@@H]1CCCN1C(=O)CNC(=O)[C@H](C)NC(=O)[C@@H]1CCCN1C(=O)CNC(=O)[C@@H]1CCCN1C(=O)[C@H](CC(C)C)NC(=O)CN)C(C)C)C(=O)NCC(=O)N[C@@H](C)C(=O)N1CCC[C@H]1C(=O)NCC(=O)N1CCC[C@H]1C(=O)N[C@@H](CO)C(=O)NCC(=O)N[C@@H](C)C(=O)N[C@@H](CCCNC(=N)N)C(=O)NCC(=O)N[C@@H](CCC(=O)O)C(=O)N[C@@H](CCCNC(=N)N)C(=O)O [compound 13] (H-GLPGPAGPPGEAGKPGEQGVPGDLGAPGPSGARGER-OH; N-terminus and C-terminus assumed),2098.04
